Laboratory results taken from ChEMBL document CHEMBL1134495, “3D-QSAR model of flavonoids binding at benzodiazepine site in GABAA receptors” (J Med Chem, 2001).

target: GABA-A receptor; anion channel; test: Binding affinity towards benzodiazepine site in GABAA receptor; format: protein-complex assay

SMILES	-Log Ki
O=c1cc(-c2cccc([N+](=O)[O-])c2)oc2ccc([N+](=O)[O-])cc12	7.92
COc1ccc(-c2cc(=O)c3cc(Br)ccc3o2)cc1	5.68
O=c1cc(-c2cccc(F)c2)oc2ccc(Br)cc12	7.38
O=c1cc(-c2cccc(Cl)c2)oc2ccc(F)cc12	6.7
O=c1cc(-c2ccc(Br)cc2)oc2ccc([N+](=O)[O-])cc12	7.6
COc1ccc(-c2cc(=O)c3cc(Cl)ccc3o2)cc1	5.9
O=c1cc(-c2ccc(F)cc2)oc2ccccc12	5.44
O=c1cc(-c2cccc(F)c2)oc2ccccc12	5.45
O=c1cc(-c2cccc([N+](=O)[O-])c2)oc2ccc(Br)cc12	9
O=c1cc(-c2cccc(Br)c2)oc2ccc(Cl)cc12	7.64
O=c1cc(-c2ccc(F)cc2)oc2ccc(Cl)cc12	6.74
O=c1cc(-c2cccc(Br)c2)oc2ccc(Br)cc12	7.72
O=c1cc(-c2ccc(F)cc2)oc2ccc(F)cc12	5.6
O=c1cc(-c2ccc([N+](=O)[O-])cc2)oc2ccc(Br)cc12	6.7
O=c1cc(-c2cccc(Br)c2)oc2ccc(F)cc12	6.63
O=c1cc(-c2cccc(Br)c2)oc2ccccc12	6.38
O=c1cc(-c2cccc(F)c2)oc2ccc(Cl)cc12	6.93
O=c1cc(-c2cccc([N+](=O)[O-])c2)oc2ccc(F)cc12	6.74
O=c1cc(-c2cccc(O)c2)oc2ccc(Cl)cc12	6.07
O=c1cc(-c2cccc(F)c2)oc2ccc(F)cc12	6.04
O=c1cc(-c2ccccc2)oc2c(Br)c(O)c(Br)c(O)c12	6.15

SMILES	-Log Ki
O=c1cc(-c2ccccc2F)oc2ccc(Br)cc12	6.42
O=c1cc(-c2ccccc2F)oc2ccc(Cl)cc12	6.38
O=c1cc(-c2cccc(Cl)c2)oc2ccccc12	6.21
O=c1cc(-c2ccccc2[N+](=O)[O-])oc2ccc(Br)cc12	6.68
O=c1cc(-c2cccc(O)c2)oc2ccc(Br)cc12	6.22
O=c1cc(-c2cccc(Cl)c2)oc2ccc(Cl)cc12	7.64
O=c1cc(-c2ccccc2Cl)oc2cc(O)cc(O)c12	5.1
O=c1cc(-c2cccc(O)c2)oc2ccc(F)cc12	5.6
O=c1cc(-c2cccc(Cl)c2)oc2ccc(Br)cc12	7.77
O=c1cc(-c2cccc([N+](=O)[O-])c2)oc2ccc(Cl)cc12	8.1
O=c1cc(-c2ccc(F)cc2)oc2ccc(Br)cc12	6.94
O=c1cc(-c2ccccc2F)oc2cc(O)cc(O)c12	5.1
O=c1cc(-c2ccccc2)oc2ccc(Br)cc12 [6-BROMOFLAVONE]	7.15
O=c1cc(-c2ccc(O)cc2)oc2cc(O)cc(O)c12 [APIGENIN]	5.52
O=c1cc(-c2ccccc2)oc2cc(O)c(O)c(O)c12 [BAICALEIN]	5.25
O=C(O)[C@H]1O[C@@H](Oc2cc3oc(-c4ccccc4)cc(=O)c3c(O)c2O)[C@H](O)[C@@H](O)[C@@H]1O [BAICALIN]	4.11
O=c1cc(-c2ccccc2)oc2cc(O)cc(O)c12 [CHRYSIN]	5.52
O=c1cc(-c2ccccc2)oc2ccccc12 [FLAVONE]	6
COc1c(O)cc2oc(-c3ccc(O)cc3)cc(=O)c2c1O [HISPIDULIN]	6
O=c1cc(-c2ccc(O)cc2)oc2cc(O)c(O)c(O)c12 [SCUTELLAREIN]	4.92
COc1c(O)cc(O)c2c(=O)cc(-c3ccccc3)oc12 [WOGONIN]	5.69
